# Source: US20230149358A1, “COMBINATION CANCER THERAPY WITH PENTAAZA MACROCYCLIC RING COMPLEX AND HORMONE THERAPY AGENT” (Galera Labs, LLC, priority 2020, published 2023)
# Tests used:
# [1] = system: head-and-neck cancer patients; conditions: head-and-neck cancer patients undergoing chemoradiation therapy; cited from earlier work
# MCF-7-MnSOD^K68Q cells = experiment: Clonogenic cell survival after 5 Gy ionizing radiation, MCF-7-MnSOD^K68Q cells; format: cell-based, human; conditions: 5 μM GC4419 for 5 days, then 5 Gy ionizing radiation
# Experimental: FIGS. 30a-30b are plots showing that expression of MnSOD^K68Q induces ionizing radiation resistance (IRR) in MCF7 cells. […] All experiments were done in triplicate. Error bars represent±1 SEM. ***p<0.001. Data were analyzed by a t-test.
# To determine if the MnSOD-K68-Ac-ROS axis plays a role in IRR, it was hypothesized that MnSOD acetylation might play a role in how tumor cells are reprogrammed to produce a IRR phenotype. To address this idea, an established tumor cell line MCF-7 was infected with lenti-MnSOD^K68Q to induce MnSOD^K68Q expression, which was validated. MCF-7-MnSOD^WT and MCF-7-MnSOD^K68Q cells were treated without or with 5 Gy of IR.
# MCF7-Cispl-R cells [2] = experiment: Cell ROS levels, MCF7-Cispl-R cells; format: cell-based, human; conditions: GC4419 exposure; data not shown
# Experimental: FIGS. 27a-27c are an image and graphs showing that MnSOD-Ac-K68/HIF2α dysregulation directs PanR (resistance to cancer therapeutics). […] In FIG. 27b, ROS was measured in MCF7-Cispl-R cells, compared with MCF7 cells, using an Amplex Red assay. In FIG. 27c, MCF7 and MCF7-MnSOD^K68Q cells were measured by clonogenic cell survival assays, without and with Cispl exposure, and infected with scrambled (C) or HIF2α shRNA. All experiments were done in triplicate. Error bars are ±1 SEM. * p<0.05.
# (§1) Aberrant HIF2α levels promote lineage plasticity, leading to chemoresistance and metastasis. […] Thus, MCF7 cells were selected for cisplatin resistance (Cispl-R) by 3 months of exposure to 5 μM Cispl.
# [3] = system: Sirt3^−/−-MT-SIRT3^WT tumor cells; experiment: Mammary allograft tumor growth (bioluminescence), Sirt3^−/−-MT-SIRT3^WT; format: in vivo; conditions: Sirt3^−/−-MT-SIRT3^WT allografts, nude mice, IP
# Experimental: Mice were subsequently injected with luciferin potassium (120 mg/kg) every week and signal intensity will be quantified. Error bars represent one SD from the mean.
# These cell lines were subsequently infected with and selected to express either a SIRT3 wild-type (Sirt3^−/−-MT-SIRT3^WT) or deacetylation null (Sirt3^−/−-MT-SIRT3^DN) gene and a lenti-luciferase to assess tumor growth by bioluminescence. Allograft tumor mice were split into four groups: (1) control, untreated Sirt3^−/−-MT-SIRT3^DN; (2) GC4419 treated Sirt3^−/−-MT-SIRT3^DN; (3) control, untreated Sirt3^−/−-MT-SIRT3^WT; and (4) GC4419 treated Sirt3^−/−-MT-SIRT3^WT.
# MCF7-Cispl-R cells [4] = experiment: SOX2 and OCT4 levels, MCF7-Cispl-R cells; format: cell-based, human; conditions: MCF7-Cispl-R treated with GC4419; data not shown
# Experimental: as §1
smiles,measurement,setting,value
[Cl][Mn][Cl].c1cc2nc(c1)CN[C@H]1CCCC[C@@H]1NCCN[C@H]1CCCC[C@@H]1NC2 [GC4419],oral mucositis,[1],reduce oral mucositis
same,"ionizing radiation resistance (IRR) phenotype, clonogenic cell survival",MCF-7-MnSOD^K68Q cells,reversed the IRR phenotype
same,cell ROS levels,MCF7-Cispl-R cells [2],decreased cell ROS levels
same,allograft tumor growth,[3],no change in tumor growth was observed
same,SOX2 and OCT4 levels,MCF7-Cispl-R cells [4],decreased SOX2 and OCT4 levels
